PubChem BioAssay AID248 (DTP/NCI, 2004)
Values joined by “and” are separate entries in the source; they are usually repeats but may differ in a detail not shown here. Equal values may be shown once. Inconclusive results and toxic doses are left out.

Tested on: L1210 leukemia ip in BDF1 mice, survival T/C
Assay: NCI In Vivo Anticancer Drug Screen. Data for tumor model L1210 Leukemia (intraperitoneal) in B6D2F1 (BDF1) mice
Conditions: endpoint: mean survival time, higher = longer survival
Outline: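 Value reflects the ratio of survival in compound-treated mice to survival in vehicle-treated controls, with both groups carrying the same transplanted tumor.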

[1] = dose: 75.0 mg/kg/injection, schedule: Q01DX001 (ip), vehicle: other
[2] = dose: 50.0 mg/kg/injection, schedule: Q01DX009 (ip), vehicle: saline with Tween-80
[3] = dose: 100.0 mg/kg/injection, schedule: Q01DX009 (ip), vehicle: saline with Tween-80
[4] = dose: 100.0 mg/kg/injection, schedule: Q04DX002 (ip), vehicle: Klucel (hydroxypropylcellulose) (HPC)
[5] = dose: 200.0 mg/kg/injection, schedule: Q04DX002 (ip), vehicle: Klucel (hydroxypropylcellulose) (HPC)
[6] = dose: 100.0 mg/kg/injection, schedule: Q01DX001 (ip), vehicle: saline
[7] = dose: 200.0 mg/kg/injection, schedule: Q01DX001 (ip), vehicle: saline
[8] = dose: 400.0 mg/kg/injection, schedule: Q01DX001 (ip), vehicle: saline

CCC1CN2CCc3cc(OC)c(OC)cc3C2CC1CC1c2cc(OC)c(OC)cc2CCN1C(=O)C(Cc1c[nH]c2ccccc12)NC(=O)OC(C)(C)C (stereo unspecified)
T/C (dose: 4.0 mg/kg/injection, schedule: Q03HX008 (ip), vehicle: saline with Tween-80): 100 % of control | T/C (dose: 4.0 mg/kg/injection, schedule: Q03HX016 (ip), vehicle: saline with Tween-80): 93 % of control | T/C (dose: 4.0 mg/kg/injection, schedule: Q03HX024 (ip), vehicle: saline with Tween-80): 101 % of control | T/C (dose: 8.0 mg/kg/injection, schedule: Q03HX008 (ip), vehicle: saline with Tween-80): 105 % of control | T/C (dose: 8.0 mg/kg/injection, schedule: Q03HX016 (ip), vehicle: saline with Tween-80): 101 % of control | T/C (dose: 8.0 mg/kg/injection, schedule: Q03HX024 (ip), vehicle: saline with Tween-80): 98 % of control | T/C (dose: 16.0 mg/kg/injection, schedule: Q01DX009 (oral), vehicle: saline with Tween-80): 112 % of control | T/C (dose: 16.0 mg/kg/injection, schedule: Q03HX008 (ip), vehicle: saline with Tween-80): 101 % of control | T/C (dose: 16.0 mg/kg/injection, schedule: Q03HX016 (ip), vehicle: saline with Tween-80): 100 % of control | T/C (dose: 16.0 mg/kg/injection, schedule: Q03HX024 (ip), vehicle: saline with Tween-80): 97 % of control | T/C (dose: 32.0 mg/kg/injection, schedule: Q01DX005 (ip), vehicle: saline with Tween-80): 95 % of control | T/C (dose: 32.0 mg/kg/injection, schedule: Q01DX009 (ip), vehicle: saline with Tween-80): 104 % of control | T/C (dose: 32.0 mg/kg/injection, schedule: Q01DX009 (oral), vehicle: saline with Tween-80): 114 % of control | T/C (dose: 32.0 mg/kg/injection, schedule: Q03HX008 (ip), vehicle: saline with Tween-80): 92 % of control | T/C (dose: 32.0 mg/kg/injection, schedule: Q03HX016 (ip), vehicle: saline with Tween-80): 97 % of control | T/C (dose: 32.0 mg/kg/injection, schedule: Q03HX024 (ip), vehicle: saline with Tween-80): 98 % of control | T/C (dose: 32.0 mg/kg/injection, schedule: Q04DX003 (ip), vehicle: saline with Tween-80): 162 % of control | T/C (dose: 37.5 mg/kg/injection, schedule: Q01DX009 (ip), vehicle: saline): 95 % of control | T/C (dose: 64.0 mg/kg/injection, schedule: Q01DX001 (ip), vehicle: saline with Tween-80): 100 % of control | T/C (dose: 64.0 mg/kg/injection, schedule: Q01DX005 (ip), vehicle: saline with Tween-80): 102 % of control | T/C (dose: 64.0 mg/kg/injection, schedule: Q01DX009 (ip), vehicle: saline with Tween-80): 100 % of control | T/C (dose: 64.0 mg/kg/injection, schedule: Q01DX009 (oral), vehicle: saline with Tween-80): 114 % of control | T/C (dose: 64.0 mg/kg/injection, schedule: Q04DX003 (ip), vehicle: saline with Tween-80): 97 % of control | T/C (dose: 64.0 mg/kg/injection, schedule: Q08DX002 (ip), vehicle: saline with Tween-80): 98 % of control | T/C (dose: 75.0 mg/kg/injection, schedule: Q01DX009 (ip), vehicle: saline): 103 % of control | T/C (dose: 89.0 mg/kg/injection, schedule: Q01DX001 (ip), vehicle: saline): 115 % of control | T/C (dose: 128.0 mg/kg/injection, schedule: Q01DX001 (ip), vehicle: saline with Tween-80): 102 % of control | T/C (dose: 128.0 mg/kg/injection, schedule: Q01DX005 (ip), vehicle: saline with Tween-80): 101 % of control | T/C (dose: 128.0 mg/kg/injection, schedule: Q01DX009 (ip), vehicle: saline with Tween-80): 105 % of control | T/C (dose: 128.0 mg/kg/injection, schedule: Q04DX003 (ip), vehicle: saline with Tween-80): 105 % of control | T/C (dose: 128.0 mg/kg/injection, schedule: Q08DX002 (ip), vehicle: saline with Tween-80): 95 % of control | T/C (dose: 256.0 mg/kg/injection, schedule: Q01DX001 (ip), vehicle: saline with Tween-80): 97 % of control | T/C (dose: 256.0 mg/kg/injection, schedule: Q01DX009 (oral), vehicle: saline with Tween-80): 118 % of control | T/C (dose: 256.0 mg/kg/injection, schedule: Q04DX003 (ip), vehicle: saline with Tween-80): 96 % of control | T/C (dose: 256.0 mg/kg/injection, schedule: Q08DX002 (ip), vehicle: saline with Tween-80): 98 % of control | T/C (dose: 300.0 mg/kg/injection, schedule: Q01DX009 (ip), vehicle: saline): 90 % of control | T/C (dose: 512.0 mg/kg/injection, schedule: Q01DX001 (ip), vehicle: saline with Tween-80): 102 % of control | T/C (dose: 512.0 mg/kg/injection, schedule: Q08DX002 (ip), vehicle: saline with Tween-80): 106 % of control

O=C1CCC2=C3C4CCCCC4C(=O)C4CCCC(OC2C1)C34 (stereo unspecified)
T/C [1]: 105 % of control | T/C (dose: 150.0 mg/kg/injection, schedule: Q01DX001 (ip), vehicle: other): 94 % of control | T/C (dose: 300.0 mg/kg/injection, schedule: Q01DX001 (ip), vehicle: other): 89 % of control

O=C(COc1ccc(Cl)cc1Cl)Nc1ccc(F)cc1
T/C (dose: 25.0 mg/kg/injection, schedule: Q01DX009 (ip), vehicle: saline with Tween-80): 93 % of control | T/C [2]: 91 % of control | T/C [3]: 104 % of control and 88 % of control

Oc1c(Br)cc(Br)cc1C=Nc1ccc(Cl)cc1.Oc1c(Br)cc(Br)cc1C=Nc1ccc(Cl)cc1.[Co]
T/C (dose: 100.0 mg/kg/injection, schedule: Q04DX003 (ip), vehicle: saline with Tween-80): 98 % of control | T/C (dose: 200.0 mg/kg/injection, schedule: Q04DX003 (ip), vehicle: saline with Tween-80): 103 % of control | T/C (dose: 400.0 mg/kg/injection, schedule: Q04DX003 (ip), vehicle: saline with Tween-80): 98 % of control

CCCC(CNC1CCCCC1)OC(=O)c1ccc(N)cc1 (stereo unspecified)
T/C [1]: 96 % of control

CC1=CC2C(C(C)C)CC1C1C(=O)OC(=O)C21 (stereo unspecified)
T/C [4]: 102 % of control | T/C [5]: 100 % of control

CC(C)CC(CC(C)C)C(=O)C1C2CCC(O2)C1C(=O)C(CC(C)C)CC(C)C (stereo unspecified)
T/C (dose: 6.25 mg/kg/injection, schedule: Q04DX002 (ip), vehicle: saline with Tween-80): 94 % of control | T/C (dose: 12.5 mg/kg/injection, schedule: Q04DX002 (ip), vehicle: saline with Tween-80): 94 % of control | T/C (dose: 25.0 mg/kg/injection, schedule: Q04DX002 (ip), vehicle: saline with Tween-80): 86 % of control

Oc1c2ccsc2cc2ccsc12
T/C (dose: 100.0 mg/kg/injection, schedule: Q01DX001 (ip), vehicle: saline with Tween-80): 94 % of control | T/C (dose: 200.0 mg/kg/injection, schedule: Q01DX001 (ip), vehicle: saline with Tween-80): 94 % of control | T/C (dose: 400.0 mg/kg/injection, schedule: Q01DX001 (ip), vehicle: saline with Tween-80): 91 % of control

C/C(=N\NS(=O)(=O)c1ccccc1)C(C)C
T/C (dose: 75.0 mg/kg/injection, schedule: Q01DX001 (ip), vehicle: saline): 101 % of control | T/C (dose: 150.0 mg/kg/injection, schedule: Q01DX001 (ip), vehicle: saline): 98 % of control | T/C (dose: 300.0 mg/kg/injection, schedule: Q01DX001 (ip), vehicle: saline): 96 % of control

COc1cc(CC#N)cc(OC)c1
T/C [2]: 102 % of control | T/C [3]: 88 % of control

Cc1c2c(cc3c1sc1ccccc13)CCCC2=O
T/C [6]: 101 % of control | T/C [7]: 94 % of control | T/C [8]: 101 % of control

CS(C)(C)N1C(=O)c2ccccc2C1=O
T/C (dose: 87.5 mg/kg/injection, schedule: Q01DX009 (ip), vehicle: Klucel (hydroxypropylcellulose) (HPC)): 98 % of control | T/C (dose: 175.0 mg/kg/injection, schedule: Q01DX009 (ip), vehicle: Klucel (hydroxypropylcellulose) (HPC)): 96 % of control

O=C(O)c1cccc2c1C(=O)c1c(O)cccc1C2=O
T/C (dose: 50.0 mg/kg/injection, schedule: Q04DX002 (ip), vehicle: Klucel (hydroxypropylcellulose) (HPC)): 105 % of control | T/C [4]: 96 % of control | T/C [5]: 92 % of control

Cc1cccc(OCCOC(=O)Nc2cccc(C(F)(F)F)c2)c1
T/C [6]: 104 % of control | T/C (dose: 100.0 mg/kg/injection, schedule: Q01DX009 (ip), vehicle: saline): 100 % of control and 87 % of control | T/C (dose: 100.0 mg/kg/injection, schedule: Q04DX002 (ip), vehicle: saline): 100 % of control and 101 % of control | T/C (dose: 100.0 mg/kg/injection, schedule: Q04DX003 (ip), vehicle: saline): 101 % of control | T/C [7]: 106 % of control | T/C (dose: 200.0 mg/kg/injection, schedule: Q01DX009 (ip), vehicle: saline): 92 % of control and 87 % of control | T/C (dose: 200.0 mg/kg/injection, schedule: Q04DX002 (ip), vehicle: saline): 100 % of control and 105 % of control | T/C (dose: 200.0 mg/kg/injection, schedule: Q04DX003 (ip), vehicle: saline): 106 % of control | T/C [8]: 109 % of control | T/C (dose: 400.0 mg/kg/injection, schedule: Q01DX009 (ip), vehicle: saline): 94 % of control | T/C (dose: 400.0 mg/kg/injection, schedule: Q04DX002 (ip), vehicle: saline): 92 % of control and 97 % of control | T/C (dose: 400.0 mg/kg/injection, schedule: Q04DX003 (ip), vehicle: saline): 103 % of control
